Bridge positions count the residues as written; N and C are the ends. Square brackets hold non-standard residues; d marks the D form. Peptide text beside a SMILES is read from it. Hyp = O=C(O)[C@@H]1C[C@@H](O)CN1 A value given as a limit tells only on which side of the number the result lay.

The assay has as its target α-chymotrypsin (Bos taurus, UniProt P00766). Briefly: Chymotrypsin inhibitory activity of peptides (AAPFpNA hydrolysis; IC50, Ki, residual activity). The class given is biochemical. Particulars: for IC50: chymotrypsin 30 nM, AAPFpNA 0.5 mM; for Ki: Ki=IC50/(1+S/Km), Km 0.38 mM. The procedure:
The inhibition constants of various synthetic active peptide inhibitors (molecular scaffolds) against seine proteases were measured. The substrates N-succinyl-Ala-Ala-Pro-Phe-p-nitroaniline (AAPFpNA), Nα—Benzoyl-L-arginine-4-nitroaniline hydrochloride (BApNA) and N-succinyl-[…] (AAApNA) are used in competitive binding reaction to determine the inhibitory activities against α-chymotrypsin, bovine trypsin, and porcine pancreatic elastase, respectively. Experiments for α-chymotrypsin and bovine trypsin inhibition were measured in 20 mM CaCl2, 50 mM Tris-HCl buffer (pH 7.8), and that for porcine elastase inhibition was measured in 50 mM Tris-HCl buffer (pH 8.0). The concentration of the peptide was measured using optical density (OD) at 280 nm. The Michaelis constant (Km) of the enzyme hydrolysis substrate is calculated from the initial rate of substrate hydrolysis at 405 nm. The absorbance value of the substrate was measured at 405 nm after complete hydrolysis. All data were processed using nonlinear regression.
• (1) Added a total 190 μL of reaction buffer (20 mM CaCl2, 50 mM Tris-HCl (pH 7.8)) into the 96 well plate, followed by preheating at 37° C. for 15 min. Then added 2 μL of different concentrations of substrates (p-Nitroanilide, pNA, 0.5% in DMSO), and mixed by centrifugation at 500 rpm for 1 min. Finally, the plate was incubated at 37° C. for 20 min, and the absorbance value at 405 nm was measured. In the 200 μL of reaction system, the final concentrations of pNA were 0, 0.025, 0.05, 0.075, 0.1, 0.125, 0.15, 0.25, and 0.3 mM, respectively. Make three repetitions for each concentration and plot the OD405 m value with pNA concentration to obtain the standard curve. • (2) Added a total 190 μL of reaction buffer (20 mM CaCl2, 50 mM Tris-HCl (pH 7.8)) and 8 μL of 0.75 μM chymotrypsin into the 96 well plate, followed by preheating at 37° C. for 5 min. Then added 2 μL of different concentrations of substrates (AAPFpNA, dissolved in DMSO), and mixed by centrifugation at 500 rpm for 1 min. Finally, the plate was incubated at 37° C. for 20 min, and the absorbance value at 405 nm was measured. In the 200 μL of reaction system, the final concentrations of AAPFpNA were 0, 0.125, 0.25, 0.285, 0.33, 0.4, and 0.5 mM, respectively. Make three repetitions for each concentration and plot the OD405 nm value with time to obtain the corresponding curve. Divide the slope of the curve by the slope of the standard curve and the enzyme concentration to obtain the initial velocity V0 (mM/(min*mM protein). Plot the initial velocity V0 with the concentration of substrate AAPFpNA using Prism software, and the Michaelis constant Km value of chymotrypsin hydrolyzing AAPFpNA was obtained.
• (1) Added a total 190 μL of reaction buffer (20 mM CaCl2, 50 mM Tris-HCl (pH 7.8)), different concentrations of anti-chymorypsin peptides (CHs) into the pre-cold 96 well plate, followed by preheating at 37° C. for 5 min and centrifugated at 500 rpm for 1 min and allowed to stand for 4 minutes. Then added 8 μL of 750 nM chymotrypsin and incubated at 37° C. for 10 min, and centrifugated at 500 rpm for 1 min and allowed to stand for 9 minutes. Finally, added 2 μL of 50 mM AAPFpNA, and mixed by centrifugation at 500 rpm for 1 min. The plate was incubated at 37° C. for 90 min, and the absorbance value at 405 nm was measured. Three repetitions were made, and only reaction buffer and substrate were added in the blank control as the minimum absorption value (Min OD405 nm); Only reaction buffer, enzyme and substrate were added in the negative control as the maximum absorption value (Max OD405). • (2) In the 200 μL of reaction system, the final concentrations of chymotrypsin and AAPFpNA were 30 nM and 0.5 mM, respectively. • (3) Data statistics
Residual activity of enzyme (%)=(1−(Max OD405 nm−Sample OD405 nm)/(Max OD405 nm−Min OD405 nm))*100 […]

With `CSCC[C@@H]1NC(=O)CNC(=O)[C@@H]2CCCN2C(=O)[C@H](CC(=O)O)NC(=O)[C@H](CO)NC(=O)[C@H](Cc2ccccc2)NC(=O)[C@H]([C@@H](C)O)NC(=O)[C@@H](NC(=O)[C@@H](N)CCSC)CSSC[C@@H](C(=O)N[C@@H](CO)C(=O)O)NC1=O` [CH50] (H-MCTFSDPGMCS-OH; disulfide 2-10; N-terminus and C-terminus assumed), the IC50 (usually the concentration at which inhibition is half-maximal) was over 50 µM.

Consider `CC[C@H](C)[C@@H]1NC(=O)[C@@H]2CCCN2C(=O)[C@@H]2CCCN2C(=O)[C@H]([C@@H](C)CC)NC(=O)[C@H](CO)NC(=O)[C@H](Cc2ccc(O)cc2)NC(=O)[C@H](CC(C)C)NC(=O)[C@@H](NC(=O)[C@H](CCCCN)NC(=O)CN)CSSC[C@@H](C(=O)N[C@@H](Cc2ccccc2)C(=O)N2CCC[C@H]2C(=O)N[C@@H](CC(N)=O)C(=O)O)NC1=O` [CH20] (H-GKCLYSIPPICFPN-OH; disulfide 3-11; N-terminus and C-terminus assumed), for which the Ki (as a rule, a measure of affinity in units of concentration, obtained from inhibition or displacement) is 7.1 µM and the IC50 was 16.4 µM.

On to `CC[C@H](C)[C@@H]1NC(=O)[C@H](CO)NC(=O)[C@H](Cc2ccc(O)cc2)NC(=O)[C@H]([C@@H](C)O)NC(=O)[C@H](C)NC(=O)[C@H](CO)NC(=O)[C@@H](N)CSSC[C@@H](C(=O)N[C@@H](Cc2ccc(O)cc2)C(=O)O)NC(=O)[C@H](CCC(N)=O)NC(=O)[C@@H]2CCCN2C(=O)[C@@H]2CCCN2C1=O` [CH8] (H-CSATYSIPPQCY-OH; disulfide 1-11; N-terminus and C-terminus assumed), for which the IC50 is over 50 µM.

For the compound `CC[C@H](C)[C@@H]1NC(=O)[C@@H]2CCCN2C(=O)[C@@H]2CCCN2C(=O)[C@H]([C@@H](C)CC)NC(=O)[C@H](CO)NC(=O)[C@H](Cc2ccccc2)NC(=O)[C@H]([C@@H](C)O)NC(=O)[C@H](C)NC(=O)[C@H]([C@@H](C)O)NC(=O)CNC(=O)[C@@H](N)CSSC[C@@H](C(=O)N[C@@H](CC(N)=O)C(=O)O)NC1=O` [CH27] (H-CGTATFSIPPICN-OH; disulfide 1-12; N-terminus and C-terminus assumed), the “inhibitory activity against chymotrypsin (in words)” value (“inhibitory activity” for short) is “certain inhibitory activity”; the affinity, expressed as Ki, was 2.88 µM; the midpoint of inhibition, the IC50, lay at 6.66 µM. Also, the “Residual activity of chymotrypsin” value (peptide 0.01 μM) came to 102.7 ± 2.4%. Also, the “Residual activity of chymotrypsin” value (peptide 0.1 μM) is recorded as 105.3 ± 0.9%. For the same compound, the “Residual activity of chymotrypsin” value (peptide 1 μM) was 106.0 ± 0.7%. For the same compound, the “Residual activity of chymotrypsin” value (peptide 3 μM) came to 86.8 ± 1.5%. Further, the “Residual activity of chymotrypsin” value (peptide 6 μM) is on record as 64.9 ± 3.1%. The “Residual activity of chymotrypsin” value (peptide 10 μM) is given as 26.2 ± 2.4%. For the setting “peptide 25 μM”, the “Residual activity of chymotrypsin” value is given as 15.5 ± 0.3%. The “Residual activity of chymotrypsin” value (peptide 100 μM) is given as 2.9 ± 0.3%. Under “peptide 300 μM”, the “Residual activity of chymotrypsin” value was determined as 1.2 ± 0.0%. Moreover, the “Residual activity of chymotrypsin” value (peptide 1000 μM) amounted to 0.7 ± 0.1%.

In turn, `CC[C@H](C)[C@@H]1NC(=O)[C@H](CO)NC(=O)[C@H](Cc2ccc(O)cc2)NC(=O)[C@H]([C@@H](C)O)NC(=O)[C@H](C)NC(=O)[C@H](CC(N)=O)NC(=O)CNC(=O)[C@@H](N)CSSC[C@@H](C(=O)N[C@@H](Cc2ccc(O)cc2)C(=O)NCC(=O)O)NC(=O)[C@H](CCC(N)=O)NC(=O)[C@@H]2CCCN2C(=O)[C@@H]2CCCN2C1=O` [CH21] (H-CGNATYSIPPQCYG-OH; disulfide 1-12; N-terminus and C-terminus assumed) displayed an IC50 of over 50 µM.

As for `CC[C@H](C)[C@@H]1NC(=O)[C@H](CO)NC(=O)[C@H](Cc2ccc(O)cc2)NC(=O)[C@H]([C@@H](C)O)NC(=O)[C@@H](NC(=O)[C@@H]2CCCN2)CSSC[C@@H](C(=O)N[C@@H](Cc2ccc(O)cc2)C(=O)O)NC(=O)[C@H](CCC(N)=O)NC(=O)[C@@H]2CCCN2C(=O)[C@@H]2CCCN2C1=O` [CH51] (H-PCTYSIPPQCY-OH; disulfide 2-10; N-terminus and C-terminus assumed), the “inhibitory activity” value is “good chymotrypsin inhibitory activity”.

Consider `C[C@@H]1NC(=O)[C@@H](NC(=O)[C@@H](N)Cc2ccccc2)CSSC[C@@H](C(=O)N[C@@H](CCC(N)=O)C(=O)O)NC(=O)[C@H](CCCCN)NC(=O)[C@@H]2CCCN2C(=O)[C@@H]2CCCN2C(=O)[C@H](CC(N)=O)NC(=O)[C@H](CO)NC(=O)[C@H](Cc2ccc(O)cc2)NC1=O` [CH44] (H-FCAYSNPPKCQ-OH; disulfide 2-10; N-terminus and C-terminus assumed), for which the Ki was 8.59 µM and the IC50 amounted to 19.9 µM.

Regarding `CC[C@H](C)[C@@H]1NC(=O)[C@H](CO)NC(=O)[C@H](Cc2ccc(O)cc2)NC(=O)[C@H]([C@@H](C)O)NC(=O)[C@@H](NC(=O)[C@@H](N)Cc2ccccc2)CSSC[C@@H](C(=O)N[C@@H](CCCNC(=N)N)C(=O)O)NC(=O)[C@H](CCC(N)=O)NC(=O)[C@@H]2CCCN2C(=O)[C@@H]2CCCN2C1=O` [CH35] (H-FCTYSIPPQCR-OH; disulfide 2-10; C-terminus assumed), the “inhibitory activity” value is recorded as “good inhibitory activity”. For the same compound, the “Residual activity of chymotrypsin” value (peptide 1000 μM) was found to be 0.9 ± 0.1%.

For the compound `CC[C@H](C)[C@@H]1NC(=O)[C@H](CO)NC(=O)[C@H](Cc2ccc(O)cc2)NC(=O)[C@H]([C@@H](C)O)NC(=O)[C@@H](NC(=O)[C@@H](N)Cc2ccccc2)CSSC[C@@H](C(=O)N[C@@H](Cc2ccc(O)cc2)C(=O)NCC(=O)O)NC(=O)[C@H](CCC(N)=O)NC(=O)[C@@H]2CCCN2C(=O)[C@@H]2C[C@@H](O)CN2C1=O` [CH53, FCTYSIHypPQCYG] (H-FCTYSI[Hyp]PQCYG-OH; disulfide 2-10; C-terminus assumed), the “inhibitory activity” value was “good chymotrypsin inhibitory activity”, affinity was put at a Ki of 0.11 µM and the IC50 stood at 0.25 µM.

Compound `CC[C@H](C)[C@H](N)C(=O)N[C@H]1CSSC[C@@H](C(=O)N[C@H](C(=O)O)[C@@H](C)CC)NC(=O)[C@H](CCC(N)=O)NC(=O)[C@H](C)NC(=O)[C@@H]2CCCN2C(=O)[C@H]([C@@H](C)CC)NC(=O)[C@H](CO)NC(=O)[C@H](Cc2ccccc2)NC(=O)[C@H]([C@@H](C)O)NC1=O` [CH38] (H-ICTFSIPAQCI-OH; disulfide 2-10; N-terminus and C-terminus assumed) yielded a Ki of 2.15 µM and an IC50 of 4.98 µM.

As for `CSCC[C@H](N)C(=O)N[C@H]1CSSC[C@@H](C(=O)N[C@H](C(=O)O)C(C)C)NC(=O)[C@H](CCCCN)NC(=O)[C@H](C)NC(=O)[C@@H]2CCCN2C(=O)[C@H](Cc2c[nH]cn2)NC(=O)[C@H](CO)NC(=O)[C@H](Cc2ccccc2)NC(=O)[C@H]([C@@H](C)O)NC1=O` [CH49] (H-MCTFSHPAKCV-OH; disulfide 2-10; N-terminus and C-terminus assumed), the “inhibitory activity” value was “good chymotrypsin inhibitory activity”, the Ki worked out at 9.81 µM and the concentration for half-maximal inhibition (IC50) was 22.7 µM.

For the origin of these results see patent US20230416329A1, “A PEPTIDE WITH DISULFIDE BONDS AND INHIBITORY ACTIVITY AGAINST SERINE PROTEASES, DERIVED HYBRID PEPTIDES THEREOF, AND USES THEREOF” (INSTITUTE OF MATERIA MEDICA , CHINESE ACADEMY OF MEDICAL …, priority 2020, published 2023).
